Structures are written as SMILES.

Test [1] has as its target C-Raf kinase (SEQ. ID NO: 3) (Homo sapiens (Human), UniProt P04049, Y340D/Y341D). As to the kind of experiment: Biochemical Assay for C-Raf (2). The note with it: Table J, biochemical assay (2); read-out: CRAF (2). The protocol:
Biochemical Assay for C-Raf (2)
Activity of C-Raf kinase (SEQ. ID NO: 3) was determined spectroscopically using a coupled pyruvate kinase/lactate dehydrogenase assay that continuously monitors the ATP hydrolysis-dependent oxidation of NADH (e.g., Schindler et al., Science, 2000, 289, 1938-1942). Assays were conducted in 384-well plates (25 μL final volume) using 3.84 nM C-Raf (Eurofins), 1.5 units pyruvate kinase, 2.1 units lactate dehydrogenase, 1 mM phosphoenol pyruvate, 0.7 mM NADH, 50 nM MEK (SignalChem), and 1 mM ATP in assay buffer (100 mM Tris, pH 7.5, 15 mM MgCl2, 0.5 mM DTT, 0.1% octyl-glucoside, 0.002% (w/v) BSA, and 0.002% Triton X-100). Inhibition of C-Raf was measured by adding serial diluted test compound (final assay concentration of 1% DMSO). A decrease in absorption at 340 nm was monitored hourly for 4 h at 30° C. on a multi-mode microplate reader (BioTek). The reaction rate was calculated using the 2 to 3 h time frame. The reaction rate at each concentration of compound was converted to percent inhibition using controls (i.e., reaction with no test compound and reaction with a known inhibitor) and IC50 values were calculated by fitting a four-parameter sigmoidal curve to the data using Prism (GraphPad software).

Test [2] deals with A-Raf kinase (SEQ. ID No: 1) (Homo sapiens (Human), UniProt P10398, Y301D/Y302D). Nature of the test: Biochemical Assay for A-Raf (2). To be noted: Table J, biochemical assay (2); read-out: ARAF (2). How it is done: Biochemical Assay for A-Raf (2)
(§1) Activity of A-Raf kinase (SEQ. ID No: 1) was determined spectroscopically using a coupled pyruvate kinase/lactate dehydrogenase assay that continuously monitors the ATP hydrolysis-dependent oxidation of NADH (e.g., Schindler et al., Science, 2000, 289, 1938-1942). Assays were conducted in 384-well plates (25 μL final volume) using 20 nM A-Raf (Eurofins), 1.5 units pyruvate kinase, 2.1 units lactate dehydrogenase, 1 mM phosphoenol pyruvate, 0.7 mM NADH, 100 nM MEK (SignalChem), and 1 mM ATP in assay buffer (100 mM Tris, pH 7.5, 15 mM MgCl2, 0.5 mM DTT, 0.1% octyl-glucoside, 0.002% (w/v) BSA, and 0.002% Triton X-100). Inhibition of A-Raf was measured by adding serial diluted test compound (final assay concentration of 1% DMSO). A decrease in absorption at 340 nm was monitored hourly for 4 h at 30° C. on a multi-mode microplate reader (BioTek). The reaction rate was calculated using the 3 to 4 h time frame. The reaction rate at each concentration of compound was converted to percent inhibition using controls (i.e., reaction with no test compound and reaction with a known inhibitor) and IC50 values were calculated by fitting a four-parameter sigmoidal curve to the data using Prism (GraphPad software).

Test [3] deals with B-Raf (V600E) (SEQ. ID NO: 4) kinase (Homo sapiens (Human), UniProt P15056, V600E). Nature of the test: Biochemical Assay for B-Raf (V600E) (2). The note with it: Table J, BRAF V600E, biochemical assay (2); read-out: BRAF VE (2). How it is done: Biochemical Assay for B-Raf (V600E) (2)
as §1, with “of B-Raf (V600E)” for “of A-Raf kinase”, “ID NO: 4) kinase” for “ID No: 1)”, “using 0.5” for “using 20”, “nM B-Raf (deCode),” for “nM A-Raf (Eurofins),”, “of B-Raf (V600E)” for “of A-Raf”

The subject of another test is A375 cells. As to the kind of experiment: A375 Cell Proliferation Assay (2). It counts as cell-based. The note with it: Homo sapiens, A-375. How it is done:
A375 Cell Proliferation Assay (2)
A375 cells (catalog (#CRL-1619) are obtained from the American Type Culture Collect (ATTC, Manassas, VA). Briefly, cells were grown in DMEM High Glucose supplemented with 10% characterized fetal bovine serum (Invitrogen, Carlsbad, CA) and 1% Penicillin/Streptomycin/L-Glutamine at 37° C., 5% CO2, and 95% humidity. Cells are expanded until reaching 70-95% confluency at which point they are sub-cultured or harvested for assay use. Using the Beckman Coulter Echo 650, a serial dilution of test compound is dispensed into a 384-well black clear bottom plate in triplicate. Six hundred twenty-five cells are added per well in 50 μL complete growth medium in the 384-well plate. Plates are incubated for 67-72 h at 37° C., 5% CO2, and 95% humidity. At the end of the incubation, 10 μL of a 440 μM solution of resazurin (Sigma, St. Louis, MO) in PBS is added to each well of the plate and plates are incubated for an additional 3-6 h at 37° C., 5% CO2, and 95% humidity. Plates are read on a Synergy2 or equivalent reader (Biotek, Winooski VT) using an excitation of 540 nm and an emission of 600 nm. Data is analyzed using Prism software (GraphPad, San Diego, CA) to calculate IC50 values.

Sequence of A-Raf kinase (SEQ. ID No: 1) (P10398 other isoform, or with tags, fused parts or gaps Y301D (already in the parent)/Y302D (already in the parent)): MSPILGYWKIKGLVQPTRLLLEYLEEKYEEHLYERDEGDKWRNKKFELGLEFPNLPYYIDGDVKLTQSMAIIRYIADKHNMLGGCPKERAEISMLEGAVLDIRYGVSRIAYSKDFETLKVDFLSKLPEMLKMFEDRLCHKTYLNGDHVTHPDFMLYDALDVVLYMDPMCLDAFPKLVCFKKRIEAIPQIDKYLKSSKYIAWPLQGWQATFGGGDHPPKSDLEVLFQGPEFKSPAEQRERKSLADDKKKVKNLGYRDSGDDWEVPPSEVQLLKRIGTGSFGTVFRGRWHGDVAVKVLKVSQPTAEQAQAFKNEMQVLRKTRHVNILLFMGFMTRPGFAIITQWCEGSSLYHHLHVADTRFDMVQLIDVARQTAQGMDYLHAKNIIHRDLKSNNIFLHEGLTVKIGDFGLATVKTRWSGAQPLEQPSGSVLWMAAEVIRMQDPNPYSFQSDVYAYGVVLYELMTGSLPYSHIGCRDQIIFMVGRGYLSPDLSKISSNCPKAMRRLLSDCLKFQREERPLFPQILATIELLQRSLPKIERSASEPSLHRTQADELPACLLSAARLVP
Sequence of B-Raf (V600E) (SEQ. ID NO: 4) kinase (P15056 416-766 V600E): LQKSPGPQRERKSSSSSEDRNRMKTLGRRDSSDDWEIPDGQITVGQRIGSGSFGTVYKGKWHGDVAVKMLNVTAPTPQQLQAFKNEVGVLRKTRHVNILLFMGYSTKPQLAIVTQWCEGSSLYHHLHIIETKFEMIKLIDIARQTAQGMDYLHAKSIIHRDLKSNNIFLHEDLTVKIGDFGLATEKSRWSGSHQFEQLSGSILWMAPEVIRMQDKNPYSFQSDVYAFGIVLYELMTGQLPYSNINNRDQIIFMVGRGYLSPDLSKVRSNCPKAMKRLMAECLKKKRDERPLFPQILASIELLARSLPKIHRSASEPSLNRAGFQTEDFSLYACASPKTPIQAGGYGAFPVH
Sequence of C-Raf kinase (SEQ. ID NO: 3) (P04049 307-648 Y340D/Y341D): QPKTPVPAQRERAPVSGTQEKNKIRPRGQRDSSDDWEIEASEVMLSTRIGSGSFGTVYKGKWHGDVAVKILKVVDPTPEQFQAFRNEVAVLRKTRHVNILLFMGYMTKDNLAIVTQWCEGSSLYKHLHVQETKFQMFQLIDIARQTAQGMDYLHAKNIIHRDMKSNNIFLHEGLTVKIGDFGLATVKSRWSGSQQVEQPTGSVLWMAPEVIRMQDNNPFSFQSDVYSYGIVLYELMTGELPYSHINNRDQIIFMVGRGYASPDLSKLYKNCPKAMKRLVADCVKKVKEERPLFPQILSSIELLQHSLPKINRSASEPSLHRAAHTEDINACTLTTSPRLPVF

On to `CNC(=O)c1cc(-c2cncc(-c3cc(NC(=O)c4ccnc(C(C)(F)F)c4)ccc3C)c2)ncn1` [Example 439], for which the IC50 in test [1] is at most 100 nM; in test [2] it was 1000 to 10000 nM; in test [3] it was at most 100 nM; in the test with A375 cells it was 100 to 500 nM.
With `CNC(=O)c1cc(-c2cncc(-c3cc(NC(=O)c4ccnc(C(C)(F)F)c4)ccc3C)c2)ccn1` [Example 440], the IC50 in test [1] is at most 100 nM; in test [2] it was 1000 to 10000 nM; in test [3] it was at most 100 nM; in the test on A375 cells, 100 to 500 nM.
In the case of `CNC(=O)c1cc(-c2cc(-c3cc(NC(=O)c4ccnc(C(C)(F)F)c4)ccc3C)ccn2)ccn1` [Example 441], the IC50 in test [1] was at most 100 nM; in test [2] it was 500 to 1000 nM; in test [3], at most 100 nM; with A375 cells, at most 100 nM.
For the compound `CNC(=O)c1cc(-c2cncc(-c3cc(NC(=O)c4ccnc(C(C)(C)C#N)c4)ccc3C)c2)ccn1` [Example 442], the IC50 in test [1] is at most 100 nM; in test [2] it was 1000 to 10000 nM; in test [3] it was at most 100 nM; in the test on A375 cells it was at most 100 nM.
Take `CNC(=O)c1cc(-c2cc(-c3cc(NC(=O)c4ccnc(C(C)C)c4)ccc3C)ccn2)ccn1` [Example 443]: the IC50 in test [1] was at most 100 nM; in test [2], 500 to 1000 nM; in test [3] it was at most 100 nM; with A375 cells, 100 to 500 nM.
As for `CNC(=O)c1cc(-c2cc(-c3cc(NC(=O)c4ccnc(C(C)(C)F)c4)cnc3C)ccn2)ccn1` [Example 444], the IC50 in test [1] was at most 100 nM; in test [2], 1000 to 10000 nM; in test [3] it was at most 100 nM; in the test with A375 cells, 100 to 500 nM.
Turning to `CNC(=O)c1cc(-c2cncc(-c3cc(NC(=O)c4ccnc(C(C)C)c4)ccc3C)c2)ccn1` [Example 445], the IC50 in test [1] is at most 100 nM; in test [2], 500 to 1000 nM; in test [3], at most 100 nM; in the test with A375 cells, 100 to 500 nM.
Turning to `CNC(=O)c1cc(-c2cncc(-c3cc(NC(=O)c4ccnc(C(C)C)c4)ccc3C)c2)ncn1` [Example 446], the IC50 in test [1] is at most 100 nM; in test [2] it was 1000 to 10000 nM; in test [3], at most 100 nM; with A375 cells, 100 to 500 nM.
Regarding `Cc1ccc(NC(=O)c2ccnc(C(C)(C)F)c2)cc1-c1ccnc(-c2ccnc(C#N)c2)c1` [Example 447], the IC50 in test [1] is at most 100 nM; in test [2], 1000 to 10000 nM; in test [3], 100 to 500 nM; with A375 cells, 1000 to 10000 nM.
On to `Cc1ccc(NC(=O)c2ccnc(C(C)(C)F)c2)cc1-c1ccnc(-c2ccnc(C(=O)NCCO)c2)c1` [Example 448], for which the IC50 in test [1] was at most 100 nM; in test [2], 1000 to 10000 nM; in test [3], at most 100 nM; in the test with A375 cells, 100 to 500 nM.
For the compound `CNC(=O)c1cc(-c2cc(-c3cc(NC(=O)c4ccnc(C(C)(C)F)c4)ccc3C)cc(OCCO)n2)ccn1` [Example 449], the IC50 in test [1] is at most 100 nM; in test [2], 1000 to 10000 nM; in test [3], at most 100 nM; in the test on A375 cells it was at most 100 nM.
Take `Cc1ccc(NC(=O)c2ccnc(C(C)(C)F)c2)cc1-c1ccnc(-c2ccnc(C(=O)NC3CN(C)C3)c2)c1` [Example 450]: the IC50 in test [1] is 100 to 500 nM; in test [2], 1000 to 10000 nM; in test [3], at most 100 nM; in the test on A375 cells, 100 to 500 nM.
Consider `Cc1ccc(NC(=O)c2ccnc(C(C)(C)F)c2)cc1-c1ccnc(-c2ccnc(C(=O)NCC#N)c2)c1` [Example 451], for which the IC50 in test [1] was at most 100 nM; in test [2] it was 1000 to 10000 nM; in test [3], at most 100 nM; in the test on A375 cells, at most 100 nM.
Consider `CNC(=N)c1cc(-c2cc(-c3cc(NC(=O)c4ccnc(C(C)(C)F)c4)ccc3C)ccn2)ccn1` [Example 452], for which the IC50 was at most 100 nM in test [1], 1000 to 10000 nM in test [2], at most 100 nM in test [3] and 100 to 500 nM with A375 cells.
As for `Cc1ccc(NC(=O)c2ccnc(C(C)(C)F)c2)cc1-c1ccnc(-c2ccnc(C(=O)NCCN(C)C)c2)c1` [Example 453], the IC50 in test [1] was at most 100 nM; in test [2], 1000 to 10000 nM; in test [3], at most 100 nM; with A375 cells, 100 to 500 nM.

Source of the values: patent US12319655B2, “RAF kinase inhibitors and methods of use thereof” (Deciphera Pharmaceuticals, LLC, priority 2021, dated 2025).
